# In patent publication US10272095B2 (GlaxoSmithKline Intellectual Property Development Limited, priority 2015, dated 2019):
# Counter-ions that a name gives are not always drawn.
# Test system: NQO1 specific enzyme activity in BEAS-2B cells
# Assay: BEAS-2B NQO1 MTT assay
# Format: cell-based
# Conditions: Homo sapiens, BEAS-2B, 48 h, NQO1 specific enzyme activity induction in BEAS-2B cells, 48 hours; read-out: EC50
# From the text: NAD(P)H:quinone oxidoreductase 1 (NQO1), also called DT diaphorase, is a homodimeric FAD-containing enzyme that catalyzes obligatory NAD(P)H-dependent two-electron reductions of quinones and protects cells against the toxic and neoplastic effects of free radicals and reactive oxygen species arising from one-electron reductions. The transcription of NQO1 is finely regulated by NRF2, and thus NQO1 activity is a good marker for NRF2 activation. On day one, frozen BEAS-2B cells (ATCC) are thawed in a water bath, counted, and re-suspended at a concentration of 250,000 cells/mL. Fifty microliters of cells are plated in 384 well black clear-bottomed plates. Plates are incubated at 37° C., 5% CO2 overnight. On day two, plates are centrifuged and 50 nL of compound or controls are added to the cells. Plates are then incubated at 37° C., 5% CO2 for 48 hours. On day four, medium is aspirated from the plate and crude cell lysates are made by adding 13 uL of 1× Cell Signaling Technologies lysis buffer with 1 Complete, Mini, EDTA-free Protease Inhibitor Tablet (Roche) for each 10 mL of lysis buffer. After lysis plates are incubated for 20 minutes at room temperature. Two microliters of lysate are removed for use in Cell Titer Glo assay (Promega) and MTT cocktail is prepared (Prochaska et. al. 1998) for measurement of NQO1 activity. Fifty microliters of MTT cocktail is added to each well, plate is centrifuged, and analyzed on an Envision plate reader (Perkin Elmer) using Absorbance 570 nm label for 30 minutes. Product formation is measured kinetically and the pEC50 of NQO1 specific activity induction is calculated by plotting the change in absorbance (Delta OD/min) versus the log of compound concentration followed by 3-parameter fitting.
# EC50s<1 nM (+++++), EC50s 10 nM-1 nM (++++), EC50s 10-100 nM (+++), EC50s 100 nM-1 uM (++), EC50s 1 uM-10 uM (+), EC50s>10 uM (−), or were not determined (ND).
row,SMILES,EC50 [µM]
1,"CCn1cc(CCC(CC(=O)O)c2ccc3c(c2)[C@@H]2[C@@H](CC(=O)N2CC2CCCCC2)C3)nn1 (stereo partly drawn) [Example 3, 3-[(3aR,8bS)-1-(cyclohexylmethyl)-2-oxo-1H,2H,3H,3aH,4H,8bH-indeno[1,2-b]pyrrol-7-yl]-5-(1-ethyl-1H-1,2,3-triazol-4-yl)pentanoic Acid]",1 to 10
2,"Cc1c(C(CC(=O)O)c2ccc3c(c2)C2C(CC(=O)N2CC2CCC4CCCCC4C2)C3)ccc2c1nnn2C (stereo not drawn) [Example 4, 3-[1-(Decahydronaphthalen-2-ylmethyl)-2-oxo-1H,2H,3H,3aH,4H,8bH-indeno[1,2-b]pyrrol-7-yl]-3-(1,4-dimethyl-1H-1,2,3-benzotriazol-5-yl)propanoic Acid]",0.01 to 0.1
3,"CCCC1CCC(CN2C(=O)CC3Cc4ccc(C(CC(=O)O)c5ccc6c(nnn6C)c5C)cc4C32)CC1 (stereo not drawn) [Example 5, 3-(1,4-Dimethyl-1H-1,2,3-benzotriazol-5-yl)-3-{2-oxo-1-[(4-propylcyclohexyl)methyl]-1H,2H,3H,3aH,4H,8bH-indeno[1,2-b]pyrrol-7-yl}propanoic Acid]",0.001 to 0.01
4,"Cc1c(C(CC(=O)O)c2ccc3c(c2)C2C(CCN2C(=O)OC(C)(C)C)C3)ccc2c1nnn2C (stereo not drawn) [Example 6, 3-{1-[(tert-Butoxy)carbonyl]-1H,2H,3H,3aH,4H,8bH-indeno[1,2-b]pyrrol-7-yl}-3-(1,4-dimethyl-1H-1,2,3-benzotriazol-5-yl)propanoic Acid]",0.1 to 1
5,"Cc1c(C(CC(=O)O)c2ccc3c(c2)C2C(CCN2C(=O)CC2CCCCC2)C3)ccc2c1nnn2C (stereo not drawn) [Example 7, 3-[1-(2-Cyclohexylacetyl)-1H,2H,3H,3aH,4H,8bH-indeno[1,2-b]pyrrol-7-yl]-3-(1,4-dimethyl-1H-1,2,3-benzotriazol-5-yl)propanoic Acid]",1 to 10
6,"Cc1c(C(CC(=O)O)c2ccc3c(c2)C2C(CCN2C(=O)C(C)c2ccccc2)C3)ccc2c1nnn2C (stereo not drawn) [Example 9, 3-(1,4-Dimethyl-1H-1,2,3-benzotriazol-5-yl)-3-[1-(2-phenylpropanoyl)-1H,2H,3H,3aH,4H,8bH-indeno[1,2-b]pyrrol-7-yl]propanoic Acid]",1 to 10
7,"CCCC(C)C(=O)N1CCC2Cc3ccc(C(CC(=O)O)c4ccc5c(nnn5C)c4C)cc3C21 (stereo not drawn) [Example 10, 3-(1,4-Dimethyl-1H-1,2,3-benzotriazol-5-yl)-3-[1-(2-methylpentanoyl)-1H,2H,3H,3aH,4H,8bH-indeno[1,2-b]pyrrol-7-yl]propanoic Acid]",1 to 10
8,"Cc1c(C(CC(=O)O)c2ccc3c(c2)C2C(CCN2C(=O)Cc2ccccc2Cl)C3)ccc2c1nnn2C (stereo not drawn) [Example 11, 3-{1-[2-(2-Chlorophenyl)acetyl]-1H,2H,3H,3aH,4H,8bH-indeno[1,2-b]pyrrol-7-yl}-3-(1,4-dimethyl-1H-1,2,3-benzotriazol-5-yl)propanoic Acid]",1 to 10
9,"Cc1c(C(CC(=O)O)c2ccc3c(c2)C2C(CCN2C(=O)Cc2ccccc2C#N)C3)ccc2c1nnn2C (stereo not drawn) [Example 12, 3-{1-[2-(2-Cyanophenyl)acetyl]-1H,2H,3H,3aH,4H,8bH-indeno[1,2-b]pyrrol-7-yl}-3-(1,4-dimethyl-1H-1,2,3-benzotriazol-5-yl)propanoic Acid]",1 to 10
10,"Cc1c(C(CC(=O)O)c2ccc3c(c2)C2C(CCN2C(=O)CC(C)(C)C)C3)ccc2c1nnn2C (stereo not drawn) [Example 13, 3-(1,4-Dimethyl-1H-1,2,3-benzotriazol-5-yl)-3-[1-(3,3-dimethylbutanoyl)-1H,2H,3H,3aH,4H,8bH-indeno[1,2-b]pyrrol-7-yl]propanoic Acid]",1 to 10
11,"CCCCN(C)C(=O)N1CCC2Cc3ccc(C(CC(=O)O)c4ccc5c(nnn5C)c4C)cc3C21 (stereo not drawn) [Example 14, 3-{1-[Butyl(methyl)carbamoyl]-1H,2H,3H,3aH,4H,8bH-indeno[1,2-b]pyrrol-7-yl}-3-(1,4-dimethyl-1H-1,2,3-benzotriazol-5-yl)propanoic Acid]",1 to 10
12,"COc1cc(C(CC(=O)O)c2ccc3c(c2)C2C(CCN2C(=O)OC(C)(C)C)C3)cc2nnn(C)c12 (stereo not drawn) [Example 15, 3-{1-[(tert-Butoxy)carbonyl]-1H,2H,3H,3aH,4H,8bH-indeno[1,2-b]pyrrol-7-yl}-3-(7-methoxy-1-methyl-1H-1,2,3-benzotriazol-5-yl)propanoic Acid]",0.1 to 1
13,"CCn1nnc2c(C)c(C(CC(=O)O)c3ccc4c(c3)C3C(CCN3C(=O)OC(C)(C)C)C4)ccc21 (stereo not drawn) [Example 16, 3-(1-(tert-Butoxycarbonyl)-1,2,3,3a,4,8b-hexahydroindeno[1,2-b]pyrrol-7-yl)-3-(1-ethyl-4-methyl-1H-benzo[d][1,2,3]triazol-5-yl)propanoic Acid]",0.1 to 1
14,"CCn1cc(CCC(CC(=O)O)c2ccc3c(c2)C2C(CCN2C(=O)OC(C)(C)C)C3)nn1 (stereo not drawn) [Example 17, 3-(1-(tert-Butoxycarbonyl)-1,2,3,3a,4,8b-hexahydroindeno[1,2-b]pyrrol-7-yl)-5-(1-ethyl-1H-1,2,3-triazol-4-yl)pentanoic Acid]",1 to 10
15,"COc1cc(C(CC(=O)O)c2ccc3c(c2)C2C(CCN2C(=O)OC(C)(C)C)C3)c(C)c2nnn(C)c12 (stereo not drawn) [Example 18, 3-(1-(tert-Butoxycarbonyl)-1,2,3,3a,4,8b-hexahydroindeno[1,2-b]pyrrol-7-yl)-3-(7-methoxy-1,4-dimethyl-1H-benzo[d][1,2,3]triazol-5-yl)propanoic Acid]",0.01 to 0.1
16,"Cc1c(C(CC(=O)O)c2ccc3c(c2)C2C(CC3)CC(=O)N2CC2CCCCC2)ccc2c1nnn2C (stereo not drawn) [Example 19, 3-(1-(Cyclohexylmethyl)-2-oxo-2,3,3a,4,5,9b-hexahydro-1H-benzo[g]indol-8-yl)-3-(1,4-dimethyl-1H-benzo[d][1,2,3]triazol-5-yl)propanoic Acid]",0.1 to 1
17,"Cc1c(C(CC(=O)O)c2ccc3c(c2)C2C(C3)OC(=O)N2CC2CCCCC2)ccc2c1nnn2C (stereo not drawn) [Example 20, 3-(3-(Cyclohexylmethyl)-2-oxo-3,3a,8,8a-tetrahydro-2H-indeno[1,2-d]oxazol-5-yl)-3-(1,4-dimethyl-1H-benzo[d][1,2,3]triazol-5-yl)propanoic Acid]",0.1 to 1
18,"Cc1c(C(CC(=O)O)c2ccc3c(c2)C(N2Cc4cc(Cl)ccc4OC(C)(C)C2)CC3)ccc2c1nnn2C (stereo not drawn) [Example 21, 3-(3-(7-Chloro-2,2-dimethyl-2,3-dihydrobenzo[f][1,4]oxazepin-4(5H)-yl)-2,3-dihydro-1H-inden-5-yl)-3-(1,4-dimethyl-1H-benzo[d][1,2,3]triazol-5-yl)propanoic Acid, Formic Acid Salt]",0.001 to 0.01
19,"Cc1ccc2c(c1)CN(C1CCc3ccc(C(CC(=O)O)c4ccc5c(nnn5C)c4C)cc31)CC(C)(C)O2 (stereo not drawn) [Example 22, 3-(1,4-Dimethyl-1H-benzo[d][1,2,3]triazol-5-yl)-3-(3-(2,2,7-trimethyl-2,3-dihydrobenzo[f][1,4]oxazepin-4(5H)-yl)-2,3-dihydro-1H-inden-5-yl)propanoic Acid]",0.001 to 0.01
20,"COc1ccc2c(c1)CN(C1CCc3ccc(C(CC(=O)O)c4ccc5c(nnn5C)c4C)cc31)CC(C)(C)O2 (stereo not drawn) [Example 23, 3-(1,4-Dimethyl-1H-benzo[d][1,2,3]triazol-5-yl)-3-(3-(7-methoxy-2,2-dimethyl-2,3-dihydrobenzo[f][1,4]oxazepin-4(5H)-yl)-2,3-dihydro-1H-inden-5-yl)propanoic Acid]",0.001 to 0.01
21,"Cc1ccc2c(c1)OC(C)(C)CN(C1CCc3ccc(C(CC(=O)O)c4ccc5c(nnn5C)c4C)cc31)C2 (stereo not drawn) [Example 24, 3-(1,4-Dimethyl-1H-benzo[d][1,2,3]triazol-5-yl)-3-(3-(2,2,8-trimethyl-2,3-dihydrobenzo[f][1,4]oxazepin-4(5H)-yl)-2,3-dihydro-1H-inden-5-yl)propanoic Acid, Formic Acid Salt]",0.001 to 0.01
22,"Cc1c(C(CC(=O)O)c2ccc3c(c2)C(N2Cc4ccc(F)cc4OC(C)(C)C2)CC3)ccc2c1nnn2C (stereo not drawn) [Example 25, 3-(1,4-Dimethyl-1H-benzo[d][1,2,3]triazol-5-yl)-3-(3-(8-fluoro-2,2-dimethyl-2,3-dihydrobenzo[f][1,4]oxazepin-4(5H)-yl)-2,3-dihydro-1H-inden-5-yl)propanoic Acid]",0.001 to 0.01
23,"Cc1cc(F)ccc1C(c1ccc2c(c1)C(N1Cc3ccccc3OC(C)(C)C1)CC2)C(C)(C)C(=O)O (stereo not drawn) [Example 26, 3-(3-(2,2-Dimethyl-2,3-dihydrobenzo[f][1,4]oxazepin-4(5H)-yl)-2,3-dihydro-1H-inden-5-yl)-3-(4-fluoro-2-methylphenyl)-2,2-dimethylpropanoic Acid]",0.01 to 0.1

# Same assay, conditions: NQO1 specific enzyme activity induction in BEAS-2B cells, 48 hours; read-out: EC50
row,SMILES,EC50 [µM]
1,"Cc1c(C(CC(=O)O)c2ccc3c(c2)C2C(CCN2C(=O)C(C)c2ccccc2)C3)ccc2c1nnn2C (stereo not drawn) [Example 8, 3-(1,4-Dimethyl-1H-1,2,3-benzotriazol-5-yl)-3-[1-(2-phenylpropanoyl)-1H,2H,3H,3aH,4H,8bH-indeno[1,2-b]pyrrol-7-yl]propanoic Acid]",1 to 10
